Reference: PubChem BioAssay AID651672 (The Scripps Research Institute Molecular Screening Center, 2012)
“And” between values parts separate entries of the source, which are not always exact repeats. Equal values may be shown once. The source made the active and inactive calls. How the calls were made is not given here.

The compounds below were run against Perilipin-1 (Homo sapiens) (UniProt O60240) (assay: ABHD5 and perilipin-1 interaction blockers – biochemical, luminescence, counter-screen for ABHD5-PLIN5 interaction inhibitor project, dose response (AID 651672;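 further: split Gaussia luciferase complementation between ABHD5 and PLIN1 fusion fragments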)). Details: ABHD5-PLIN1 interaction.
Chain of Perilipin-1 (Homo sapiens) (O60240 whole entry, looked up, the tested form may be a part): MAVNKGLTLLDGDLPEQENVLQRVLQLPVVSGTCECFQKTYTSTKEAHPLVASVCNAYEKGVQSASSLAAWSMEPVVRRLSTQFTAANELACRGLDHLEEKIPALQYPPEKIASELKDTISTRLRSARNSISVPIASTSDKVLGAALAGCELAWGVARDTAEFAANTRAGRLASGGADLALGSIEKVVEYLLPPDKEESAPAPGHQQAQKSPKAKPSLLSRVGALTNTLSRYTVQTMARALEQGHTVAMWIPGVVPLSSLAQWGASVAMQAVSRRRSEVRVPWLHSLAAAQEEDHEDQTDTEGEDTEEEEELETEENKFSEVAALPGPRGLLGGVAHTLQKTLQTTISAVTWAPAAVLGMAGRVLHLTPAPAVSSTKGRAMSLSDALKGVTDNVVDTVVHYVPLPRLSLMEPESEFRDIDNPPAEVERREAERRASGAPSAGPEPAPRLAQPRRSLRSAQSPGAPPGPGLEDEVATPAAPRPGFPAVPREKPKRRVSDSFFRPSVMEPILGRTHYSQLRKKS

SMILES	IC50
Cc1cccc(C)c1NC(=O)C(c1ccc(C(F)(F)F)cc1)n1c(=O)c(-c2ccco2)nc2ccccc21 (stereo unspecified)	2.22 µM
Cc1ccc(C(=O)c2c(C)oc3c2C(=O)C(=O)c2ccccc2-3)cc1	5.4 µM
CCSc1nnc(NC(=O)c2nc(S(=O)(=O)Cc3ccc(F)cc3)ncc2Cl)s1	2.68 µM
C=C1C(=O)O[C@H]2C[C@H]1[C@@H](OC(C)=O)C/C(C)=C/CC/C(C)=C\CC[C@]2(C)O	1.87 µM
O=C(NC1CCCCC1)C(c1ccnc2ccccc12)n1c(=O)c(-c2ccco2)nc2ccccc21 (stereo unspecified)	2.25 µM
CN1[C@@H]2CC[C@H]1CC(OC1c3ccccc3CCc3ccccc31)C2 (stereo partly specified)	1.92 µM
CC(C)(C)NC(=O)C(c1ccccc1)n1c(=O)c(-c2ccco2)nc2ccccc21 (stereo unspecified)	2.04 µM
C#CCN(C[C@@H]1[C@@H](OC(=O)NCc2ccc(OC)c(OC)c2)[C@@H](OC(=O)NCc2ccc(OC)c(OC)c2)Cn2c(=O)ccc(=O)n21)S(=O)(=O)c1ccc(C)cc1	4.59 µM
CC(=O)C1=C(c2cccc([N+](=O)[O-])c2)N(C(C)=O)n2c(C)nnc2S1	2.47 µM
Cc1ccc(CC2(OCCN(C)C)CCC(C(C)(C)C)CC2)cc1 (stereo unspecified)	9.48 µM
CCOC(=O)C1CCCN(C(=O)c2cc(Nc3ccc(OC)cc3)nc3ccccc23)C1 (stereo unspecified)	inactive
Cc1ccc2c(CC(=O)N3CCN(S(=O)(=O)c4ccc5c(c4)OCCO5)CC3)coc2c1	5.11 µM
CC(C)c1ccc(N2C=Nc3ccc(C(C)C)cc3C2)cc1	7.98 µM
O=C1NC(=O)N(Cc2ccccc2)C(=O)/C1=C\C=C\c1ccco1	1.82 µM
CSc1nnc(NC(=O)c2nc(S(=O)(=O)Cc3ccc(C)cc3)ncc2Cl)s1	3.1 µM
O=C(NCc1ccccc1)C(c1cc2ccccc2o1)n1c(=O)c(-c2ccco2)nc2ccccc21 (stereo unspecified)	2.31 µM
Cc1cccc(NC(=O)CSc2nnc(-c3ccco3)c(-c3ccco3)n2)c1	1.92 µM
CCCCn1c(SCC(=O)NCc2ccco2)nnc1-c1ccoc1C	4.71 µM
COc1cc(/C=C/C(=O)c2ccc(Cl)s2)cc(OC)c1O	4.59 µM
Cc1ccc(O)c(C(=O)/C=C/c2ccc3c(c2)OCCCO3)c1	4.63 µM
CC1=CC(C)(C)Nc2ccc(OC(=O)CN3C(=O)c4cccc5cccc(c45)C3=O)cc21	6.42 µM
CSc1nnc(NC(=O)c2nc(S(=O)(=O)Cc3ccccc3F)ncc2Cl)s1	2.16 µM
O=c1[nH]c(C2CCN(S(=O)(=O)c3ccc(S(=O)(=O)NC4CC4)cc3)CC2)nc2c1nnn2Cc1ccc(F)cc1	3.56 µM
COc1ccc(/C=C/C(=O)c2cc(F)ccc2OC(=O)c2ccc(OC)c(OC)c2)cc1OC	2.44 µM
COc1cc(C(C)=O)ccc1OCc1cn(CC(=O)c2ccc(O)cc2)nn1	4.59 µM
O=C(NCc1ccccc1)C(C1CC1)n1c(=O)c(-c2ccco2)nc2ccccc21 (stereo unspecified)	6.05 µM

SMILES	IC50
NC(=NCCCCCCN=C(N)/N=C(\N)Nc1ccc(Cl)cc1)/N=C(\N)Nc1ccc(Cl)cc1	2.86 µM and 2.31 µM
CCCCC(=O)NC(c1cccc([N+](=O)[O-])c1)c1ccc2cccnc2c1O (stereo unspecified)	inactive
C#CCN(C[C@@H]1[C@@H](OC(=O)NC2CCCC2)[C@@H](OC(=O)NC2CCCC2)Cn2c(=O)ccc(=O)n21)S(=O)(=O)c1ccc(C)cc1	4.75 µM
CCOC(=O)N1CCN(C(=O)C[C@@H]2C[C@@]3(C(=O)OCC)CCC=C3N(Cc3ccc(Cl)cc3Cl)C2=O)CC1	9.78 µM
COc1ccc(NC(=S)N(CCCN2CCCC2)Cc2cccn2Cc2ccc(Cl)cc2)cc1Cl	inactive
CC1CN(Cc2c(O)ccc3c2oc(=O)c2ccccc23)CC(C)O1 (stereo unspecified)	2.92 µM
O=C(CF)N(O)c1ccc(C=Cc2ccccc2)cc1	> 13.3 µM (inactive)
Cc1cccc(C)c1NC(=O)C(c1ccnc2ccccc12)n1c(=O)c(-c2ccco2)nc2ccccc21 (stereo unspecified)	3.32 µM
O=C(/C(=C/O)N=Nc1ccc(Cl)cc1)c1ccncc1	7.4 µM
COc1ccc(C(C(=O)NC2CCCCC2)n2c(=O)c(-c3ccco3)nc3ccccc32)cc1 (stereo unspecified)	1.27 µM
COc1ccc(NC(=O)c2cc3ccccc3cc2O)cc1	inactive
CCSc1ccc2c(c1)N(CCCN1CCN(C)CC1)c1ccccc1S2	6.35 µM
Cc1ccc(/C(O)=C2/C(=O)C(=O)OC2c2ccc(Cl)cc2)cc1 (stereo unspecified)	9.38 µM
O=C(NCc1ccccc1)C(c1ccccc1)n1c(=O)c(-c2ccco2)nc2ccccc21 (stereo unspecified)	2.5 µM
CC(=O)Oc1ccc(C23c4ccccc4C2(OC(C)=O)c2cc(OC(C)=O)ccc23)cc1 (stereo unspecified)	0.581 µM
O=c1c(-c2ccco2)nc2ccccc2n1C(CCc1ccccc1)c1nc2ccccc2[nH]1 (stereo unspecified)	2.32 µM
COc1ccc(C(C(=O)NCc2ccccc2)n2c(=O)c(-c3ccco3)nc3ccccc32)cc1 (stereo unspecified)	2.17 µM
CCc1nnc(NC(=O)c2nc(S(=O)(=O)Cc3ccccc3)ncc2Cl)s1	4.25 µM
CN(C)CCN(Cc1ccco1)c1ccccn1	inactive
O=C1C(=O)c2c(C(=O)c3ccccc3)coc2-c2ccccc21	4.97 µM
CCOC(=O)/C(=C\c1ccc(Cl)cc1)c1nc2sc(C)c(C)c2c(=O)[nH]1	0.525 µM
C#CCN(C[C@@H]1[C@@H](OC(=O)NCCCCCC)[C@@H](OC(=O)NCCCCCC)Cn2c(=O)ccc(=O)n21)S(=O)(=O)c1ccc(C)cc1	5.99 µM
O=C(NC1CCCCC1)C(c1ccccc1)n1c(=O)c(-c2ccco2)nc2ccccc21 (stereo unspecified)	0.964 µM
CN(C)CCCN(C(=O)CCc1ccccc1)c1nc2ccc(Cl)cc2s1	6.98 µM
O=CC1=C(c2ccccc2)Oc2ccccc2O1	2.57 µM
CC(C)(C)NC(=O)C(c1ccc(C(F)(F)F)cc1)n1c(=O)c(-c2ccco2)nc2ccccc21 (stereo unspecified)	2.69 µM

SMILES	IC50
N#Cc1ncc(Cc2ccccc2)nc1C#N	inactive
Cc1nc2c(o1)CCc1ccccc1C2N1CCN(C)CC1 (stereo unspecified)	inactive
CCOC(=O)c1c(NC(=O)/C=C/C(=O)O)sc(C)c1-c1ccc(C(C)(C)C)cc1	4.81 µM
Cc1cccc(C)c1NC(=O)C(c1cccc2ccccc12)n1c(=O)c(-c2ccco2)nc2ccccc21 (stereo unspecified)	2.4 µM
O=C(Nc1ccc(Cl)cc1)/C(=C/c1cccc(O)c1)c1nc2ccccc2s1	1.68 µM
O=C(NC1CCCCC1)C(C1CC1)n1c(=O)c(-c2ccco2)nc2ccccc21 (stereo unspecified)	3.11 µM
O=C1/C(=C/c2cccnc2)CC/C1=C\c1cccnc1	5.83 µM
CCOc1cc(/C=C2\CCC/C(=C\c3cc(Cl)c(O)c(OCC)c3)C2=O)cc(Cl)c1O	3.88 µM
CN1C(=O)/C(=C/C=C/c2ccco2)C(=O)NC1=S	5.88 µM
Cc1cc(C)c2nc(NNC(=O)c3ccc(S(=O)(=O)N4CCCC(C)C4)cc3)sc2c1 (stereo unspecified)	3.01 µM
CCCNC(=O)Nc1ccc2c(c1)N(C)C(=O)c1ccccc1S2	4.98 µM
CC(=O)Nc1ccc(OCc2cn(CC(=O)c3ccc(O)cc3)nn2)cc1	2.47 µM
COc1cccc2sc(N(CCCN(C)C)C(=O)COc3ccc(Cl)cc3)nc12	inactive
O=c1[nH]c(C2CCN(S(=O)(=O)c3ccc(F)cc3)CC2)nc2c1nnn2Cc1ccc2c(c1)OCCO2	inactive
N#Cc1ccccc1OCc1cn(CC(=O)c2ccc(O)cc2)nn1	4.12 µM
NC(=O)C(C(=O)/C=C/c1ccc(Cl)cc1)=C1SCCS1	inactive
CCN(CC)CCNC(=O)c1ccc(NC(=O)c2cn(-c3ccccc3)nc2-c2cccs2)cc1	inactive
CC(C)(C)NC(=O)C(c1ccnc2ccccc12)n1c(=O)c(-c2ccco2)nc2ccccc21 (stereo unspecified)	4.29 µM
COc1ccccc1-c1cc(C(=O)NC2CCN(C)CC2)c2ccc(Cl)c(C)c2n1	inactive
CCOC1=CC2=C(C(=O)C(Cl)=CC2=O)[C@@H]2CN(S(=O)(=O)c3ccc(C)cc3)[C@@H](c3ccccc3)[C@H]12	1.35 µM
CCc1nnc(NC(=O)c2nc(S(=O)(=O)Cc3cccc(C)c3)ncc2Cl)s1	3.29 µM
CCN(CC)CCOCCOC(=O)C1(c2ccccc2)CCCC1	1.87 µM
CC1=CC(C)(C)Nc2ccc(OC(=O)CN3C(=O)CCC3=O)cc21	1.72 µM
COC(=O)c1ccc(Cn2cc(/C=C\[N+](=O)[O-])c3ccccc32)o1	> 13.3 µM (inactive)
CN1CCC(=C2c3ccccc3CC(=O)c3sccc32)CC1	inactive
CN(C)CCOc1ccc(/C(=C(/CCCl)c2ccccc2)c2ccccc2)cc1	1.14 µM

SMILES	IC50
CC1CCN(S(=O)(=O)c2ccc(NC(=O)Cc3cccs3)cc2)CC1	7.02 µM
Cc1cc(C)c(NC(=O)C[N+](C)(C)CC(O)COc2cccc3ccccc23)c(C)c1 (stereo unspecified)	7.99 µM
C=CC(=O)N1c2ccccc2Sc2ccc(NC(=O)OCC)cc21	5.01 µM
CC1=CC(C)(C)Nc2ccc(OC(=O)CN3C(=O)C4CCCCC4C3=O)cc21 (stereo unspecified)	2.3 µM
CC(=O)Cc1cc(O)c2ccccc2c1OC(=O)c1ccccc1	2.63 µM
COC(=O)c1cc(=O)n(Cc2ccco2)c(=Nc2ccc(F)cc2)s1	3.19 µM
Cc1ccc(C(=O)/C=C/c2cc(Br)cc(Br)c2O)o1	5.75 µM
CCCc1nc(C)c2c(=O)[nH]c(-c3cc(S(=O)(=O)N4CCN(CC)CC4)ccc3OCC)nn12	2.45 µM
COc1ccccc1C=CC(=O)C=Cc1ccccc1OC	5.34 µM
COc1ccc(/C=C\C(=O)CC(O)(c2ccccc2)C(F)(F)F)cc1 (stereo unspecified)	2.68 µM
CCCCCNC(=O)C(C1CC1)n1c(=O)c(-c2ccco2)nc2ccccc21 (stereo unspecified)	6.58 µM
CCN(CCCc1ccccc1)CCCc1ccccc1	2.26 µM
Cc1cccc(C)c1NC(=O)C(c1ccc(-c2ccccc2)cc1)n1c(=O)c(-c2ccco2)nc2ccccc21 (stereo unspecified)	1.48 µM
CC(=O)OCC1=C(C(=O)O)N2C(=O)C(NC(=O)CCn3nc(C(F)(F)F)c(Br)c3C3CC3)C2SC1 (stereo unspecified)	8.15 µM
COC/C=C/C1=CC2=CC(=O)C(C)(OC(=O)C3CCCC3)C(=O)C2=CO1 (stereo unspecified)	2.45 µM
O=C(COc1ccccc1Cl)Nc1ccc(N2CCCC2)cc1	> 39.9 µM (inactive)
c1ccc(CCC2=NCCn3cccc32)cc1	inactive
Cc1cccc(C)c1OCc1cn(CC(=O)c2ccc(O)cc2)nn1	2.98 µM
CSc1nnc(NC(=O)c2nc(S(=O)(=O)Cc3cccc(C)c3)ncc2Cl)s1	2.7 µM
Cc1cc(C)c(C(CC(=O)c2cccs2)C(C#N)C#N)c(C)c1 (stereo unspecified)	6.74 µM
CN(C)c1ccc(Cc2cc3c(O)ccc(O)c3cc(Cc3ccc(N(C)C)cc3)c2=O)cc1	2.4 µM
COc1ccc(NC(=O)C(c2ccnc3ccccc23)n2c(=O)c(-c3ccco3)nc3ccccc32)cc1 (stereo unspecified)	4.76 µM
CC(C)(C)NC(=O)C(c1ccncc1)n1c(=O)c(-c2ccco2)nc2ccccc21 (stereo unspecified)	2.42 µM
